Data as given in patent US20210346394A1, “Remyelination Therapy” (The Regents of the University of California, priority 2016, published 2021).

Experiments:
[1] = tested on: OPCs derived from WT P7 rat pups; test: Differentiation of isolated OPCs treated with SERMs (MBP/PDGFRα/DAPI immunostaining); format: cell-based; details: 500 nM for 48 hours
Procedure: Example 3. OPC Differentiation. To assess the effect of selected SERMs on myelination, OPCs were derived from WT P7 rat pups using previously validated methodology, cultured in isolation, and treated with a select group of SERMs at a preliminary concentration of 500 nM for 48 hours. Cells were then permeabilized and immunostained for MBP (oligodendrocytes), PDGFRα (OPCs), and DAPI (cell bodies).

[2] = tested on: demyelinated lesion in corpus callosum; test: Lysolecithin-induced demyelination of the corpus callosum; format: in vivo; details: mice, 10 mg/kg for 7 days after lysolecithin, 10 days post injection, vs vehicle
Procedure: Example 5. Effects of BZA on OPC Differentiation. Lysolecithin was injected in the corpus callosum of mice and analyzed at 6 days after injection, showing a demyelinated lesion area. Mice were treated with either BZA (10 mg/kg) or vehicle control for 7 days after injection of lysolecithin. Mice were euthanized at 10 days post injection and brains were sectioned and immunostained for myelin oligodendrocyte glycoprotein peptide (MOG), Adenomatous polyposis coli (APC-a maker of mature oligodendrocytes) and Olig2. Quantification of APC-positive cells indicated a 2-fold increase in remyelination in the corpus callosum after treatment with BZA, as depicted in FIG. 3.
Example 6. BZA effects on remyelination kinetics. Toxic, focal demyelinating injury was induced in the corpus callosum of 8-week old adult mice the rate and extent of remyelination was assessed, using previously described methodology. Demyelination was induced by injecting 1 μl of 1% solution of lysolecithin. Essential to this demyelinating model is the timeline for repair, comprising active demyelination [1-3 days post lesion (dpl)], OPC recruitment (3-7 dpl, peaking at 5 dpl), oligodendrocyte differentiation (7-10 dpl) and active remyelination (14-21 dpl). Oligodendrocyte differentiation and remyelination at 10 dpl was analyzed, allowing assessment of BZA effects on the kinetics of myelin repair. […]

Row | Compound | OPC differentiation [1] | increase in remyelination (APC-positive cells) in the corpus callosum [2] [fold]
1 | N#CC(Cc1ccc(O)cc1)c1ccc(O)cc1 (stereo not drawn) [2,3-bis(4-hydroxyphenyl)-propionitrile] | significantly enhanced OPC differentiation | 
2 | Cc1c(-c2ccc(O)cc2)n(Cc2ccc(OCCN3CCCCCC3)cc2)c2ccc(O)cc12 [BZA, bazedoxifene] |  | 2
3 | CC/C(=C(\c1ccccc1)c1ccc(OCCN(C)C)cc1)c1ccccc1 [tamoxifen] | significantly enhanced OPC differentiation | 
